Measurements as given in US20090258836A1, “EFFECTIVE DELIVERY OF CROSS-SPECIES A3 ADENOSINE-RECEPTOR ANTAGONISTS TO REDUCE INTRAOCULAR PRESSURE” (The Trustees of The University of Pennsylvania, priority 2006, published 2009).
pKd: −log10 of the molar value. Entries after “also recorded” stand apart in the source; their conditions may differ.

Assays:
mouse IOP [1] = assay: Mouse IOP after topical application, invasive servo-null micropipette system (SNMS); type: in vivo, Black Swiss mice
Protocol: (§1) The test animals were black Swiss outbred mice of mixed sex, 7-9 weeks old and 25-30 g in weight, obtained from Taconic Inc. (Germantown, N.Y.), and maintained under 12:12-h light/dark illumination cycle and allowed unrestricted access to food and water. Mice were anesthetized with intraperitoneal ketamine ([…]) supplemented by topical proparacaine HCl 0.5% (Allergan, Bausch & Lomb) for the IOP measurements. IOP was measured invasively (SNMS) and non-invasively by pneumotonometry in separate animals.
By the SNMS approach (Avila et al., supra, 2001), the exploring micropipette, of […] outer diameter, was filled with a highly conducting solution and advanced across the cornea into the anterior chamber. A refined technique by Wang et al., Invest. Opthalmol. Vis. Sci. (serial online) (Aug. 31, 2006) available at www.iovs.org/egi/letters/46/9/3274#422, enhanced stability and reduce the background noise of the records, permitting fabrication of micropipettes whose resistance is 0.1-0.3 MΩ, rather than the 0.25-0.4 MΩ used initially. The filling solution was reduced from 3M KCl to 2M NaCl, rather than 3 M KCl. The resistance of the filled micropipette was balanced in a bridge circuit, and the tip was then advanced across the cornea. Upon entering the anterior chamber of the eye, the IOP forces the much lower-conducting aqueous humor into the micropipette tip, displacing the original filling solution. The micropipette resistance was thereby increased, unbalancing the bridge circuit and triggering a bellows to provide a counter-pressure, restoring the position of the filling solution and returning the resistance to its initial value. Thus, the value of the counter-pressure equals the IOP. As in the past (Avila et al., supra, 2001), the stability of the records permitted continuous measurements for tens of minutes during the course of drug applications.
(§2) Ketamine HCl was purchased from Phoenix Pharmaceutical Inc. (St. Joseph, Mo.). Other drugs were obtained from Sigma Chemical (St. Louis, Mo.). Drugs were applied topically with an Eppendorf pipette. […] The final droplet solution contained the drugs at the stated concentrations together with <2% DMSO and 0.0005% benzalkonium chloride at an osmolality of 295-300 mOsm. DMSO was omitted, altogether, from droplets containing the hydrophilic compounds adenosine, carbachol and carboxyfluorescein.
(§3) Effects on invasively-measured IOP were measured 10 min after topical application because after this time, the continued presence of the micropipette can be associated with a downward drift of the IOP, even under control conditions. In contrast, smaller droplets ([…]) were applied to the eye more frequently (three times instead of once) with the non-invasive technique, in order to forestall drying of the eye associated with the airflow from the pneumotonometer. With the non-invasive protocol, the IOP was stable for 30 min under control conditions.
In Table 1, an endpoint of 10 minutes was used for the invasive measurements in light of the above-discussed downward drift of the IOP, even under control conditions. Also the need for smaller, more frequent droplets are discussed above with regard to the non-invasive technique using the pneumotonometer. As above, with the non-invasive protocol, the IOP was stable for 30 minutes under control conditions.

mouse IOP [2] = assay: Mouse IOP after topical application, non-invasive pneumotonometry; type: in vivo, Black Swiss mice
Protocol: as §1
By comparison, IOP was measured non-invasively by pneumotonometry (OBT) (Avila et al., supra, 2005). As previously described, the commercially available tip of the ocular blood tomography (OBT) pneumotonometer (Blood Flow Analyzer [BFA] probe tip; Paradigm Medical Industries Inc.) was fit to a custom-built mount. Air flow from a constant pressure source was passed through the mount to reach a diaphragm forming the end of the BFA tip. The flow of air displaces the diaphragm outward, permitting escape of the air through holes in the wall of the probe tip into the atmosphere. Pressure was monitored with a transducer connected through a T-connection to the base of the BFA tip. The probe assembly was advanced to the cornea with a three-axis micromanipulator. The probe tip was advanced sufficiently to make contact with the tear film, as was indicated by a shift in the baseline output reading. In a refined method, the tip was withdrawn until the […] was visually displaced from the tear film. The output was then adjusted to zero before advancing the tip again. Contact with the cornea depresses the diaphragm of the BFA tip, occluding access of the air flow to the escape holes and raising the pressure at the base of the tip.
This approach was simplified to expedite identification of the endpoint, and the probe was subsequently advanced in about 10 standardized steps of approximately […] at intervals of about 10 seconds to identify the inflection region (Wang et al., supra, 2006). […] The pneumotonometric estimates of IOP were previously found to agree with manometric measurements in cannulated preparations and with estimates obtained by the servo-null technique (Avila et al., supra, 2005). Having established the baseline value of IOP, the position along the axis of advance of the micromanipulator was noted, and the probe was retracted from contact with the cornea. Subsequent measurements of IOP at later time points were obtained by advancing the probe tip to the same position, with the placement of the mouse maintained stereotactically. The measurements were conducted at 10-min intervals to avoid potential artifacts associated with prolonged pressure on the cornea.
as §2, §3
In Table 1, an endpoint of 10 minutes was used for the invasive measurements in light of the above-discussed downward drift of the IOP, even under control conditions. […]

[3] = tested on: C57 mouse intraocular pressure; assay: C57 mouse intraocular pressure, invasive servo-null technique; type: in vivo, C57 mice
mouse IOP [4] = assay: Mouse IOP monitored with SNMS, protocols of Yang et al. 2005; type: in vivo
Protocol: Pharmacol. 65:1675-1684 (2003)), is effective both in blocking adenosine-triggered shrinkage of cultured human NPE cells and in lowering IOP of mice (Yang et al., supra, 2005). MRS-1292 was tested on the mouse for two reasons. Transgenic mice provide a convenient opportunity for studying the molecular physiology and pharmacology in the living animal ([…] al., supra, 2003). Second, measurement of IOP permitted us to assess the effects of MRS-1292 on the target parameter. […] Therefore, to directly assess the effect of MRS-1292 in vivo in the mouse, IOP was monitored before and after drug application. IOP was monitored with the Servo-Null-Micropipette System (SNMS). The test protocols are described in detail by Yang et al. supra, 2005, herein incorporated by reference. […] In comparison, addition of the same volume of saline at the same osmolality produced no significant change in IOP (-0.3±1.2 mmHg, n=6, p>0.8) 14 min later. […] To estimate an approximate range, “penetrance” was defined by Yang et al. as the ratio of the published Ki value at receptors in vitro to the minimally effective droplet concentration, for a number of adenosine agonists and antagonists. Thus, penetrance ranges from 1:100 to 1:1000 for purinergic drugs that have been tested in the mouse, and it is not very different from the drug penetrance of 1:100 for agents applied topically to rabbits and primates. This rule of thumb also applies to acylguanidine blockers and bumetanide, whose topical effects have also been studied in the mouse eye. Thus, the approximately 1:1000 penetrance that Yang et al. reported in the 2003 citation for MRS 1292 in the present experiments is consistent with past studies

[5] = tested on: HCE (human ciliary epithelial) cell line, NPE cells; assay: Cell volume in isosmotic solution (isosmotic shrinkage), Coulter Counter; type: cell-based
Protocol: Cell Culture The HCE (human ciliary epithelial) cell line (Carre et al., supra, 1997) is an immortalized NPE cell line obtained from primary cultures of adult human epithelium. […] Eye Res. 57:3057-3063 (1993); Yantorno et al., Exp. Eye Res. 49:423-437 (1989)). […] Cells were passaged every 6-7 days and were studied 8-13 days after passage, after reaching confluence. An immortalized PE-cell line from a primary culture of bovine pigmented ciliary epithelium were also grown under matching conditions. Measurement of Cell Volume in Isosmotic Solution: The volume of PE and NPE cells was measured, since the movement of fluid underlies a change in PE and NPE cell volume, respectively. This is also thought to be the same as the movement of fluid which underlines the secretion of aqueous humor (FIG. 1). […] Parallel aliquots of cells were studied on the same day. One aliquot usually served as a control, and the others were exposed to different experimental conditions at the time of suspension. The same amount of solvent vehicle (dimethylformamide, DMSO or ethanol) was always added to the control and experimental aliquots. […] Cell volumes of isosmotic suspensions were measured with a Coulter Counter (model ZBI-Channelyzer II), using a 100 μm aperture (Civan et al., supra, 1994). As previously described (Wax et al., supra, 1993), the cell volume (vC) of the suspension was taken as the peak of the distribution function. Cell shrinkage was fit as a function of time (t) to a monoexpenential function: […]^0^)/τ] {1) where v∞ is the steady-state cell volume, v0 is the cell volume at the first point (t0) of the time course to be fit, and τ is the time constant of the shrinkage. For purposes of data reduction, the data were normalized to the first time point, taken to be 100% isotonic volume. Fits were obtained by nonlinear least-squares regression analysis, permitting both v∞ and τ to be variables. […] Med. Chem. 37:636-646 (1994; Jacobson et al., supra, 1995; Jacobson et al., FEBS Lett. 336:57-60 (1993)).

[6] = tested on: intact rabbit ciliary epithelium; assay: Short-circuit current across intact rabbit ciliary epithelium (iris-ciliary body); conditions: 30 μM IB-MECA, 5 mM Ba2+, solvent-corrected
Protocol: As an initial step in data analysis, 20-min period of baseline current just before addition of any agent was fit by linear least-squares analysis. The line generated by that analysis was extrapolated to a point 45 min beyond introduction of that agent. Each current response was subtracted from its respective extrapolated baseline to yield a common initial baseline approximating constant zero current. All recordings were placed in register relative to time of agent introduction (time 0). Records of control (solvent), IB-MECA with solvent, and B-MECA corrected for solvent were separately averaged. […]
Transepithelial Measurements: In animal experiments, preferably rabbits, after anesthetization and sacrifice (Carre et al., J. Membr. Biol. 146:293-305 (1995), the iris-ciliary body (1-CB) was enucleated and isolated as described by Carre et al., 1995. In one experiment, the pupil and central iris were occluded with a Lucite disc, and the iris-ciliary body was mounted between the two halves of a Lucite chamber. The annulus of exposed tissue provided a projected surface area of 0.93 cm^2. Preparations were continuously bubbled with 95%O2-5% CO2 for maintenance of pH 7.4 in a Ringer's solution comprising (in mM): 110.0 NaCl, 10.0 HEPES (acid), 5.0 HEPES (Na^+), 30.0 NaHCO3, 2.5 CaCl2, 1.2 MgCl2, 5.9 KCl, and 10.0 glucose, at an osmolality of 305 mOsm. […]

Row | Compound | effect on mouse IOP measured invasively (in words) (mouse IOP [1]; servo-null, topical) | effect on IOP in the mouse (in words) (mouse IOP [1]; tested by the inventors, technique not given) | Δ(IOP) Servo-Null (mouse IOP [1]; topical droplet 250 μM (2% DMSO), endpoint 10 min) [mm Hg] | effect on mouse IOP measured non-invasively (in words) (mouse IOP [2]; pneumotonometry, topical, MRS-3833 at 200 nM) | Δ(IOP) Pneumotonometer (mouse IOP [2]; topical droplets 250 μM (2% DMSO), 30 min) | IOP with MRS3771 ([3]; Mean ± SEM of 6 experiments) [mm Hg] | change in IOP ([3]; Mean ± SEM of 6 experiments) [mm Hg] | lowering of IOP of C57 mice ([3]; topical, N=6) [mm Hg] | increase in IOP (mouse IOP [4]; 140 nM) [mmHg] | increase in IOP (mouse IOP [4]; 10-fold lower concentration than 140 nM) [mm Hg] | change in IOP (mouse IOP [4]; droplet concentration 1400 nM) [mmHg] | τ time constant of the shrinkage ([5]; 100 nM) [min] | v∞ steady-state cell volume ([5]; 100 nM, normalized to first time point as 100% isotonic volume) [%] | effect of agonist on isosmotic volume of NPE cells ([5]; agonist 100 nM) | pKd ([5]; in the presence of gramicidin, read-out: apparent Kd for the IB-MECA-induced shrinkage) | effect on short-circuit current [6]
1 | CN(C)C(=O)[C@H]1O[C@@H](n2cnc3c(NCc4cccc(I)c4)nc(Cl)nc32)[C@H](O)[C@@H]1O [MRS-3771] | effective in lowering mouse IOP | found to lower IOP in the mouse | −3.0 ± 1.1 | exerted no effect on IOP | +0.4 ± 0.6 mm Hg | 13.2 ± 1.6 | −3.3 ± 0.6 | 3.3±0.6 | – | – | – | – | – | – | – | –
2 | CNC(=O)[C@H]1O[C@@H](n2cnc3c(NCc4cccc(I)c4)ncnc32)[C@H](O)[C@@H]1O [IB-MECA, N^6-(3-iodobenzyl)-adenosine-5′-N-methyluronamide] | – | – | – | – | – | – | – | – | 4.6±1.6 | 2.2±0.5 | −1.2±1.9 | 4.5 ± 0.6 | 95.6±0.2 | produced prompt shrinkage | 7.26 | increased the short circuit current; also recorded: produced a significant increase in the short-circuit current
